Columns and labels:
EGFR (L858R T790M C797S) = target: T1, EGFR (L858R T790M C797S) (Homo sapiens, UniProt P00533, C797S/L858R/T790M); assay: Biochemical EGFR inhibition assay (Caliper mobility shift), EGFR LRTMCS mutant; details: inhibitory activity against EGFR LRTMCS mutant; apparent IC50; read-out: Ext Enz LRTMCS
T1 construct: purchased SignalChem E10-122VG
How it was run: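 Kinase reactions at 25 °C run to 10–20% peptide phosphorylation, stopped with 35 mM EDTA. Phosphorylated product and substrate separated electrophoretically by mobility shift. Apparent IC50 from percent activity versus log compound concentration.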

[1] = tested on: phosphorylation of EGFR (Tyr1068) in NCI-H1975 cell line that harbors the EGFR L858R T790M mutations; assay: NCI-H1975 pEGFR AlphaLISA assay; format: cell-based; details: Homo sapiens, NCI-H1975, inhibition of phosphorylation of mutant EGFR in NCI-H1975 cells; 4-5 hours incubation; read-out: Ext pEGFR H1975
How it was run: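 Phospho-EGFR Tyr1068 AlphaLISA readout: lysates taken from compound-treated H1975 cells (L858R T790M EGFR) after a 4-5 h exposure at 37 °C. Cells had adhered overnight beforehand. IC50 derived by plotting % pEGFR inhibition against log compound concentration.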

T1 sequence (P00533 25-1210 T790M/C797S/L858R): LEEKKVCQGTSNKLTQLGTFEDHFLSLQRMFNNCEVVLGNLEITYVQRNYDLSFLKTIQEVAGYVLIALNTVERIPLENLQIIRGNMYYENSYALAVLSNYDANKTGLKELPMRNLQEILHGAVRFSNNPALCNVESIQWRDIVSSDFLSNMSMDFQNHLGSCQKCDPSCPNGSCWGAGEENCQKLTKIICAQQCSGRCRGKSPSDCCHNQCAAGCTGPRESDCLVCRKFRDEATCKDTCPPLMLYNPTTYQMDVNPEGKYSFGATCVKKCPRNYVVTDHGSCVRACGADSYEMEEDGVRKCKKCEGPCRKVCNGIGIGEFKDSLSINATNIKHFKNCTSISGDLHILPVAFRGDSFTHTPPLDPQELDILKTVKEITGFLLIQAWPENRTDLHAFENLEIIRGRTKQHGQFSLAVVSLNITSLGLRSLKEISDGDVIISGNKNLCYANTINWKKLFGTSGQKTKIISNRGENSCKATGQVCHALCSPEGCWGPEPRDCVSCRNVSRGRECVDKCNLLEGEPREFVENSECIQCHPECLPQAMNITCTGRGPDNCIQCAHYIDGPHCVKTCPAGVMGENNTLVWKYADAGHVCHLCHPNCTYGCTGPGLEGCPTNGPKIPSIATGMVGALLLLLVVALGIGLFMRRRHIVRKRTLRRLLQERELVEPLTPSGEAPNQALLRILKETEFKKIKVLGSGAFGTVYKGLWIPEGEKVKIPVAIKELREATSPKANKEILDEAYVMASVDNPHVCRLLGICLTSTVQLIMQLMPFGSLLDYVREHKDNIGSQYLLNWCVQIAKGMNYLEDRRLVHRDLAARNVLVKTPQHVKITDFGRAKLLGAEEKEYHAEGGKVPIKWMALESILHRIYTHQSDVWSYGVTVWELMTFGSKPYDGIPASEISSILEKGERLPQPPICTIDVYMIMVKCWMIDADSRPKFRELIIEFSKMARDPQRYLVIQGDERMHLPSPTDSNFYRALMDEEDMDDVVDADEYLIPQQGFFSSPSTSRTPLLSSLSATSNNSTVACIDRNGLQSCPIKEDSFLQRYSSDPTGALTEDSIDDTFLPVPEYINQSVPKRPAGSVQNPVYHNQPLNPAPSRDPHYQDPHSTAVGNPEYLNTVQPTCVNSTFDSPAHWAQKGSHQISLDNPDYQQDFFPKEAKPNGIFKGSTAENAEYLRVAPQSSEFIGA

IC50 (EGFR (L858R T790M C797S)) | IC50 [1] | SMILES
≤ 15 nM | ≤ 10 nM | CO[C@@H]1CCN(c2nncc(Nc3cc4c(C(C)C)ccc(N5CC(CS(C)(=O)=O)C5)c4cn3)n2)C[C@@H]1F [Compound 75, N-{3-[(3S,4R)-3-fluoro-4-methoxypiperidin-1-yl]-1,2,4-triazin-5-yl}-8-[3-(methanesulfonylmethyl)azetidin-1-yl]-5-(propan-2-yl)isoquinolin-3-amine]
≤ 15 nM | ≤ 10 nM | CO[C@H]1CCN(c2nncc(Nc3cc4c(C(C)C)ccc(N5CC(CS(C)(=O)=O)C5)c4cn3)n2)C[C@H]1F [Compound 76, N-{3-[(3R,4S)-3-fluoro-4-methoxypiperidin-1-yl]-1,2,4-triazin-5-yl}-8-[3-(methanesulfonylmethyl)azetidin-1-yl]-5-(propan-2-yl)isoquinolin-3-amine]
≤ 15 nM | ≤ 10 nM | CO[C@@H]1CCN(c2nccc(Nc3cc4c(C(C)C)cnc(N5C[C@H](CS(C)(=O)=O)[C@H]5C)c4cn3)n2)C[C@@H]1F [Compound 132, N-{2-[(3S,4R)-3-fluoro-4-methoxypiperidin-1-yl]pyrimidin-4-yl}-8-[(2R,3S)-3-(methanesulfonylmethyl)-2-methylazetidin-1-yl]-5-(propan-2-yl)-2,7-naphthyridin-3-amine]
≤ 15 nM | ≤ 10 nM | CO[C@H]1CCN(c2nncc(Nc3cc4c(C(C)C)ccc(N5C[C@H](CS(C)(=O)=O)[C@H]5C)c4cn3)n2)C[C@H]1F [Compound 133, N-{3-[(3R,4S)-3-fluoro-4-methoxypiperidin-1-yl]-1,2,4-triazin-5-yl}-8-[(2R,3S)-3-(methanesulfonylmethyl)-2-methylazetidin-1-yl]-5-(propan-2-yl)isoquinolin-3-amine]
≤ 15 nM | ≤ 10 nM | CO[C@@H]1CCN(c2nncc(Nc3cc4c(C(C)C)ccc(N5C[C@H](CS(C)(=O)=O)[C@H]5C)c4cn3)n2)C[C@@H]1F [Compound 134, N-(3-((3S,4R)-3-fluoro-4-methoxypiperidin-1-yl)-1,2,4-triazin-5-yl)-5-isopropyl-8-((2R,3S)-2-methyl-3-(methylsulfonylmethyl)azetidin-1-yl)isoquinolin-3-amine]
≤ 15 nM | ≤ 10 nM | CO[C@@H]1CCN(c2nccc(Nc3cc4c(C(C)C)ncc(N5C[C@H](CS(C)(=O)=O)[C@H]5C)c4cn3)n2)C[C@@H]1F [Compound 139, N-{2-[(3S,4R)-3-fluoro-4-methoxypiperidin-1-yl]pyrimidin-4-yl}-8-[(2R,3S)-3-(methanesulfonylmethyl)-2-methylazetidin-1-yl]-5-(propan-2-yl)-2,6-naphthyridin-3-amine]
≤ 15 nM | ≤ 10 nM | CO[C@H]1CCN(c2nccc(Nc3cc4c(C(C)C)ncc(N5C[C@H](CS(C)(=O)=O)[C@H]5C)c4cn3)n2)C[C@H]1F [Compound 140, N-{2-[(3R,4S)-3-fluoro-4-methoxypiperidin-1-yl]pyrimidin-4-yl}-8-[(2R,3S)-3-(methanesulfonylmethyl)-2-methylazetidin-1-yl]-5-(propan-2-yl)-2,6-naphthyridin-3-amine]

More lines, now with the values behind:

SMILES | IC50 (EGFR (L858R T790M C797S)) | IC50 [1]
CC(C)c1ccc(N2CC(CS(C)(=O)=O)C2)c2cnc(Nc3ccnc(N4CCC5(CCO5)CC4)n3)cc12 [Compound 38, 8-[3-(methanesulfonylmethyl)azetidin-1-yl]-N-(2-{1-oxa-7-azaspiro[3.5]nonan-7-yl}pyrimidin-4-yl)-5-(propan-2-yl)isoquinolin-3-amine] | ≤ 15 nM | ≤ 10 nM
CC(C)c1ccc(N2CC(CS(C)(=O)=O)C2)c2cnc(Nc3ccnc(N4C[C@H]5CC[C@@H](C4)[C@@H]5O)n3)cc12 [Compound 39, Rac (1R,5S,8S)-3-[4-({8-[3-(methanesulfonylmethyl)azetidin-1-yl]-5-(propan-2-yl)isoquinolin-3-yl}amino)pyrimidin-2-yl]-3-azabicyclo[3.2.1]octan-8-ol] | ≤ 15 nM | 30.1 to 50 nM
CC(C)c1ccc(N2CC(CS(C)(=O)=O)C2)c2cnc(Nc3cnnc(N4CCC5(CCO5)CC4)n3)cc12 [Compound 42, 8-[3-(methanesulfonylmethyl)azetidin-1-yl]-N-(3-{1-oxa-7-azaspiro[3.5]nonan-7-yl}-1,2,4-triazin-5-yl)-5-(propan-2-yl)isoquinolin-3-amine] | ≤ 15 nM | 10.1 to 20 nM
COC1CCN(c2nccc(Nc3cc4c(C(C)C)cnc(N5C[C@H](CS(C)(=O)=O)[C@H]5C)c4cn3)n2)CC1 [Compound 50, 8-[(2R,3S)-3-(methanesulfonylmethyl)-2-methylazetidin-1-yl]-N-[2-(4-methoxypiperidin-1-yl)pyrimidin-4-yl]-5-(propan-2-yl)-2,7-naphthyridin-3-amine] | ≤ 15 nM | ≤ 10 nM
CC(C)c1ccc(N2C[C@H](CS(C)(=O)=O)[C@H]2C)c2cnc(Nc3ccnc(N4CC[C@@H](O)[C@@H](F)C4)n3)cc12 [Compound 62, (3S,4R)-3-fluoro-1-(4-((5-isopropyl-8-((2R,3S)-2-methyl-3-((methylsulfonyl)methyl)azetidin-1-yl)isoquinolin-3-yl)amino)pyrimidin-2-yl)piperidin-4-ol] | ≤ 15 nM | ≤ 10 nM
CO[C@H]1CCN(c2nccc(Nc3cc4c(C(C)C)ccc(N5CC(CS(C)(=O)=O)C5)c4cn3)n2)C[C@H]1F [Compound 63, N-(2-((3R,4S)-3-fluoro-4-methoxypiperidin-1-yl)pyrimidin-4-yl)-5-isopropyl-8-(3-(methylsulfonylmethyl)azetidin-1-yl)isoquinolin-3-amine] | ≤ 15 nM | ≤ 10 nM
CO[C@@H]1CCN(c2nccc(Nc3cc4c(C(C)C)ccc(N5CC(CS(C)(=O)=O)C5)c4cn3)n2)C[C@@H]1F [Compound 64, N-(2-((3S,4R)-3-fluoro-4-methoxypiperidin-1-yl)pyrimidin-4-yl)-5-isopropyl-8-(3-(methylsulfonylmethyl)azetidin-1-yl)isoquinolin-3-amine] | ≤ 15 nM | ≤ 10 nM
CO[C@H]1CCN(c2nccc(Nc3cc4c(C(C)C)cnc(N5CC(CS(C)(=O)=O)C5)c4cn3)n2)C[C@H]1F [Compound 71, N-{2-[(3R,4S)-3-fluoro-4-methoxypiperidin-1-yl]pyrimidin-4-yl}-8-[3-(methanesulfonylmethyl)azetidin-1-yl]-5-(propan-2-yl)-2,7-naphthyridin-3-amine] | ≤ 15 nM | ≤ 10 nM
CO[C@@H]1CCN(c2nccc(Nc3cc4c(C(C)C)cnc(N5CC(CS(C)(=O)=O)C5)c4cn3)n2)C[C@@H]1F [Compound 72, N-{2-[(3S,4R)-3-fluoro-4-methoxypiperidin-1-yl]pyrimidin-4-yl}-8-[3-(methanesulfonylmethyl)azetidin-1-yl]-5-(propan-2-yl)-2,7-naphthyridin-3-amine] | ≤ 15 nM | ≤ 10 nM
CO[C@H]1CCN(c2nccc(Nc3cc4c(C(C)C)ncc(N5CC(CS(C)(=O)=O)C5)c4cn3)n2)C[C@H]1F [Compound 73, N-{2-[(3R,4S)-3-fluoro-4-methoxypiperidin-1-yl]pyrimidin-4-yl}-8-[3-(methanesulfonylmethyl)azetidin-1-yl]-5-(propan-2-yl)-2,6-naphthyridin-3-amine] | ≤ 15 nM | ≤ 10 nM
CO[C@@H]1CCN(c2nccc(Nc3cc4c(C(C)C)ncc(N5CC(CS(C)(=O)=O)C5)c4cn3)n2)C[C@@H]1F [Compound 74, N-{2-[(3S,4R)-3-fluoro-4-methoxypiperidin-1-yl]pyrimidin-4-yl}-8-[3-(methanesulfonylmethyl)azetidin-1-yl]-5-(propan-2-yl)-2,6-naphthyridin-3-amine] | ≤ 15 nM | ≤ 10 nM
CCS(=O)(=O)C[C@H]1CN(c2ccc(F)c3cc(Nc4ccnc(N5CC[C@@H](OC)[C@@H](F)C5)n4)ncc23)[C@@H]1C [Compound 85, 8-[(2R,3S)-3-[(ethanesulfonyl)methyl]-2-methylazetidin-1-yl]-5-fluoro-N-{2-[(3S,4R)-3-fluoro-4-methoxypiperidin-1-yl]pyrimidin-4-yl}isoquinolin-3-amine] | ≤ 15 nM | 10.1 to 20 nM
CC(C)c1ccc(N2CC(CS(C)(=O)=O)C2)c2cnc(Nc3ccnc(N4CCC5(CC4)OCCO5)n3)cc12 [Compound 88, N-(2-{1,4-dioxa-8-azaspiro[4.5]decan-8-yl}pyrimidin-4-yl)-8-[3-(methanesulfonylmethyl)azetidin-1-yl]-5-(propan-2-yl)isoquinolin-3-amine] | ≤ 15 nM | 20.1 to 30 nM
CO[C@H]1CCN(c2nccc(Nc3cc4c(C(C)C)cnc(N5C[C@H](CS(C)(=O)=O)[C@H]5C)c4cn3)n2)C[C@H]1F [Compound 131, N-{2-[(3R,4S)-3-fluoro-4-methoxypiperidin-1-yl]pyrimidin-4-yl}-8-[(2R,3S)-3-(methanesulfonylmethyl)-2-methylazetidin-1-yl]-5-(propan-2-yl)-2,7-naphthyridin-3-amine] | ≤ 15 nM | ≤ 10 nM
CO[C@@H]1CCN(c2nccc(Nc3cc4c(C(C)C)ncc(N5CC(CS(C)(=O)=O)C5)c4cn3)n2)C[C@]1(C)F [Compound 144, N-{2-[(3S,4R)-3-fluoro-4-methoxy-3-methylpiperidin-1-yl]pyrimidin-4-yl}-8-[3-(methanesulfonylmethyl)azetidin-1-yl]-5-(propan-2-yl)-2,6-naphthyridin-3-amine] | ≤ 15 nM | ≤ 10 nM
CO[C@@H]1CCN(c2nccc(Nc3cc4c(C(C)C)nnc(N5C[C@H](CS(C)(=O)=O)[C@H]5C)c4cn3)n2)C[C@@H]1F [Compound 150, N-(2-((3S,4R)-3-fluoro-4-methoxypiperidin-1-yl)pyrimidin-4-yl)-1-isopropyl-4-((2R,3S)-2-methyl-3-(methylsulfonylmethyl)azetidin-1-yl)pyrido[4,3-d]pyridazin-7-amine] | ≤ 15 nM | 20.1 to 30 nM

Reference: US12172983B2, “EGFR inhibitors” (Blueprint Medicines Corporation, priority 2019, dated 2024)
